Source: patent US12006330B2, “Substituted macrocyclic compounds and related methods of treatment” (Alkermes, Inc., priority 2020, dated 2024)

Legend:
Format in all cases: in vitro ADME
[1] = tested on: MDR1; assay: MDCK-MDR1 permeability assay; conditions: dog, MDCK-MDR1, MDCK-MDR1 cells; for efflux ratio at 2 h, 3 μM: Papp B→A divided by Papp A→B, read-out: Efflux ratio (ER); for Papp A→B at 2 h, 3 μM: test compound 3 μM, 2 hours at 37 degrees C, apical to basolateral
Experimental: The bidirectional permeability (Apical to Basal and Basal to Apical directions) of test compounds in MDCK-MIDR1 cells were evaluated using MDCK-MIDR1 cells seeded in Solvo PreadyPort™ MDCK 96-well plate. Once the plate was received from ReadyCell (Barcelona, Spain), it was treated as per PreadyPort™ user's manual.
For the Apical to Basolateral (A→B) permeability, 80 μL of test compound (3 μM) co-dosed with LY (Lucifer Yellow) (100 μM) in HBSS (Hank's Balanced Salt Solution) assay buffer was added to the donor side (A) while 250 μL of HBSS buffer was added to the receiver side (B). For the Basolateral to Apical (B→A) permeability, 255 μL of test compound (3 μM) in HBSS assay buffer was added to the donor side (B) while 75 μL of HBSS buffer containing LY (100 μM) was added to the receiver side (A).
The plate was placed in an incubator set at 37 degrees C. After 10 minutes of pre-warming, 5 μL aliquot was taken from donor compartment and set aside as the dosing solution. The MDCK-MDR1 incubation plate was placed back into the incubator for 2 hours of incubation at 37 degrees C. After 2 hours of incubation, 25 μL and 5 μL aliquots were removed from the receiver and donor sides, respectively. To the 5 μL aliquots taken from the donor sides (before and after a 2-hour incubation) were diluted with 20 μL of the HBSS buffer. All samples were mixed with 150 μL with acetonitrile containing internal standard (IS) and 200 μL water, and analyzed by LC-MS/MS.
The apparent permeability (Papp) was calculated using the following formula: Papp=dQ/dt×1/A×C0 where: • dQ/dt: amount of translocated material over incubation time (nmol/s) • A: area of insert (0.14 cm^2 for PreadyPort™ MDR1-96) • C0: initial concentration of product applied in apical (A→B) or basal (B→A) compartment (nmol/mL)
The efflux ratio (ER) was measured by dividing the Papp (basolateral to apical direction) by Papp (apical to basolateral direction). It is a general measure of the involvement of active processes. An ER>2 is considered positive for active transport.
Percent recovery was measured using the following equation:
[formula] where: • VR: Volume of the receiver compartment (mL) • VD: Volume of the donor compartment (mL) • CN: Concentration of dosing solution (μM) collected after 10 minutes of incubation • CR^final: Receiver concentration at the end of the incubation (μM) • CD^final: Donor concentration at the end of the incubation (μM)
The data reported in Table 3 were obtained according to the MDCK-MDR1 permeability assay described above.

[2] = tested on: human hepatocytes; assay: Hepatocytes stability assay (human hepatocytes); conditions: human hepatocytes; scaled hepatic clearance divided by liver blood flow (well-stirred model, fu assumed unity)
Experimental: (§1) In vitro metabolic stability was assessed using cryopreserved hepatocytes from male Sprague Dawley rats and a pool of 50 mixed gender humans (BioIVT, Baltimore, MD). The incubation mixtures were prepared by mixing 250 μL of pre-warmed KHB (Krebs-Henseleit buffer) containing 2×10^6 cell/mL of hepatocytes with 250 μL of pre-warmed KHB buffer containing 2 μM of test compounds in a 48-well plate, giving a final concentration of 1 μM test compound (0.1% DMSO) and 1×10^6 cell/mL of hepatocytes. The reaction mixture was incubated at 37 degrees C. A 50 μL aliquot of incubation mixture was taken at time points (0, 15, 30, 60, 120 and 240 minutes) and transferred into a 96-well plate containing 300 μL ice-cold acetonitrile (containing 30 ng/mL of labetalol and 10 ng/mL of Naltrexone-d3 as internal standards) and immediately placed in ice to terminate the reaction. Samples were centrifuged, and supernatants were transferred into 96-well plates for liquid chromatography with tandem mass spectrometry (LC-MS/MS) analysis to monitor the depletion of the test compound.
(§2) Data was calculated as percent remaining by assuming zero-minute time point peak area ratio (analyte/IS) as 100% and dividing remaining time point peak area ratios by zero-minute time point peak area ratio. Data were fitted to a first-order decay model to determine half-life. From a plot of log (ln) peak area against time, the slope of the line was determined. Subsequently, half-life (T1/2) and intrinsic clearance (CLint) were calculated using the equations below: Elimination rate constant (k)=(−slope) Half-life (T1/2) min=0.693/k Intrinsic Clearance (CLint) (mL/min/million cells)=(V×0.693)/T1/2 V=incubation volume mL/number of cells The in vitro T1/2 was converted to in vitro intrinsic clearance (CLint,hep) in units of mL/min/kg using the formula shown below:
(§3) [formula] The in vitro intrinsic clearance (CLint,hep) was scaled to in vivo hepatic clearance (CL,hep) using the following equation which was adapted from a well-stirred model.
(§4) [formula] where Q is the liver blood flow and fu is the fraction unbound (assumed to be unity in this case). All parameters used in the calculation are shown below (Table 4).
(§5) The extraction ratio (ER) was calculated by dividing the hepatic clearance of a compound to the liver blood flow. The data reported in Table 5 were obtained according to the human hepatocytes stability assay described above.

[3] = Hepatocytes stability assay (human hepatocytes); conditions: both sexes, human, cryopreserved hepatocytes, cryopreserved human hepatocytes (pool of 50 mixed gender); 1 μM test compound; 1×10^6 cell/mL; 37 degrees C; read-out: CLint (μL/min/million cells)
Experimental: as §1, §2, §3, §4, §5

SMILES | efflux ratio at 2 h, 3 μM [1] | Papp A→B at 2 h, 3 μM [1] | Extraction Ratio (ER) [2] | hepatocyte CLint at 1 μM [3]
Cc1ccc2c(c1)OCC(=O)N1CCC[C@H](NS(C)(=O)=O)C1CO[C@H]1CC[C@@H]2CC1 (stereo in doubt) [Compound 40] | > 100 | < 0.18 ×10⁻⁶ cm/s | 0.49 | 6.4 µL/min/1e6 cells
C=CS(=O)(=O)N[C@H]1CCCN2C(=O)COc3ccccc3C3CCC(CC3)OC[C@@H]12 (stereo in doubt) [Compound 5] | 29 | 1.3 ×10⁻⁶ cm/s | 0.77 | 22 µL/min/1e6 cells
Cc1cnc2c(c1)[C@H]1CC[C@H](CC1)OCC1[C@@H](NS(=O)(=O)C(C)C)CCCN1C(=O)CO2 (stereo in doubt) [Compound 34] | 67 | 0.44 ×10⁻⁶ cm/s | 0.52 | 7.1 µL/min/1e6 cells
O=C1COc2ccccc2[C@H]2CC[C@H](CC2)OCC2[C@@H](NS(=O)(=O)CC3CC3)CCCN12 (stereo in doubt) [Compound 48] | 60 | 0.56 ×10⁻⁶ cm/s | 0.86 | 41 µL/min/1e6 cells
Cc1cccc2c1[C@H]1CC[C@H](CC1)OCC1[C@@H](NS(=O)(=O)C3CC3)CCN1C(=O)CO2 (stereo in doubt) [Compound 70] | 4.2 | 3.7 ×10⁻⁶ cm/s | 0.87 | 45 µL/min/1e6 cells
Cc1cccc2c1[C@H]1CC[C@H](CC1)OCC1[C@@H](NS(=O)(=O)C(C)C)CCN1C(=O)CO2 (stereo in doubt) [Compound 79] | 3.8 | 5.7 ×10⁻⁶ cm/s | 0.87 | 46 µL/min/1e6 cells
Cc1ccc2c(c1)C1CCC(CC1)OC[C@H]1[C@@H](NS(=O)(=O)C3CC3)CCCN1C(=O)CO2 (stereo in doubt) [Compound 13] | 72 | 0.35 ×10⁻⁶ cm/s | 0.48 | 6.3 µL/min/1e6 cells
CC1(S(=O)(=O)N[C@H]2CCCN3C(=O)COc4ccccc4C4CCC(CC4)OC[C@@H]23)CC1 (stereo in doubt) [Compound 8] | 3.6 | 1.8 ×10⁻⁶ cm/s | 0.82 | 31 µL/min/1e6 cells
O=C1COc2nnccc2[C@H]2CC[C@H](CC2)OCC2[C@@H](NS(=O)(=O)C3CC3)CCCN12 (stereo in doubt) [Compound 67] | 63 | < 0.036 ×10⁻⁶ cm/s | 0.27 | 2.5 µL/min/1e6 cells
CC(C)S(=O)(=O)N[C@H]1CCCN2C(=O)COc3ncc(Cl)cc3[C@H]3CC[C@H](CC3)OCC12 (stereo in doubt) [Compound 35] | 81 | 0.35 ×10⁻⁶ cm/s | 0.70 | 16 µL/min/1e6 cells
Cc1cccc2c1OCCN1CCC[C@H](NS(C)(=O)=O)C1CO[C@H]1CC[C@@H]2CC1 (stereo in doubt) [Compound 49] | 0.73 | 8.6 ×10⁻⁶ cm/s | 0.90 | 58 µL/min/1e6 cells
O=C1COc2ccccc2C2CCC(CC2)OC[C@H]2[C@@H](NS(=O)(=O)C(F)F)CCCN12 (stereo in doubt) [Compound 7] | 22 | 1.4 ×10⁻⁶ cm/s | 0.74 | 19 µL/min/1e6 cells
Cc1cccc2c1C1CCC(CC1)OC[C@H]1[C@@H](NS(=O)(=O)C3CC3)CCCN1C(=O)CO2 (stereo in doubt) [Compound 4] | 31 | 0.66 ×10⁻⁶ cm/s | 0.81 | 29 µL/min/1e6 cells
O=C1COc2ccccc2[C@H]2CC[C@H](CC2)OCC2[C@@H](NS(=O)(=O)C3CCC3)CCCN12 (stereo in doubt) [Compound 42] | 7.4 | 0.92 ×10⁻⁶ cm/s | 0.84 | 36 µL/min/1e6 cells
Cc1ccnc2c1[C@H]1CC[C@H](CC1)OCC1[C@@H](NS(=O)(=O)C3COC3)CCCN1C(=O)CO2 (stereo in doubt) [Compound 88] | 25 | 0.84 ×10⁻⁶ cm/s | 0.50 | 6.7 µL/min/1e6 cells
O=S(=O)(CC1CCC1)N[C@H]1CCCN2CCOc3ccccc3[C@H]3CC[C@H](CC3)OCC12 (stereo in doubt) [Compound 55] | 31 | 0.23 ×10⁻⁶ cm/s | 0.91 | 69 µL/min/1e6 cells
Cc1ccc2c(c1C)[C@H]1CC[C@H](CC1)OCC1[C@@H](NS(=O)(=O)C(C)C)CCCN1C(=O)CO2 (stereo in doubt) [Compound 76] | 28 | 0.57 ×10⁻⁶ cm/s | 0.59 | 9.8 µL/min/1e6 cells
Cc1c(Cl)ccc2c1[C@H]1CC[C@H](CC1)OCC1[C@@H](NS(=O)(=O)C(C)C)CCCN1C(=O)CO2 (stereo in doubt) [Compound 28] | 92 | 0.43 ×10⁻⁶ cm/s | 0.36 | 3.8 µL/min/1e6 cells
Cc1ccnc2c1[C@H]1CC[C@H](CC1)OCC1[C@@H](NS(=O)(=O)C3CC3)CCCN1C(=O)CO2 (stereo in doubt) [Compound 62] | > 100 | 0.092 ×10⁻⁶ cm/s | 0.76 | 21 µL/min/1e6 cells
Cc1ccc2c(c1)OCCN1CCC[C@H](NS(C)(=O)=O)C1CO[C@H]1CC[C@@H]2CC1 (stereo in doubt) [Compound 50] | 0.76 | 9.6 ×10⁻⁶ cm/s | 0.90 | 61 µL/min/1e6 cells
CC(C)S(=O)(=O)N[C@H]1CCCN2C(=O)COc3ccc(Cl)cc3[C@H]3CC[C@H](CC3)OCC12 (stereo in doubt) [Compound 26] | > 100 | < 0.12 ×10⁻⁶ cm/s | 0.43 | 5.1 µL/min/1e6 cells
Cc1ncnc2c1[C@H]1CC[C@H](CC1)OCC1[C@@H](NS(=O)(=O)C3CC3)CCN1C(=O)CO2 (stereo in doubt) [Compound 83] | 46 | 0.85 ×10⁻⁶ cm/s | 0.28 | 2.6 µL/min/1e6 cells
Cc1c(Cl)ccc2c1[C@H]1CC[C@H](CC1)OCC1[C@@H](NS(C)(=O)=O)CCCN1C(=O)CO2 (stereo in doubt) [Compound 31] | > 100 | 0.32 ×10⁻⁶ cm/s | 0.37 | 3.9 µL/min/1e6 cells
